The values below come from PMC7598271, “In Vitro Studies to Define the Cell-Surface and Intracellular Targets of Polyarginine-Conjugated Sodium Borocaptate as a Potential Delivery Agent for Boron Neutron Capture Therapy” (Cells, 2020).

Data set [1] addresses T1, eIF4A (Homo sapiens, UniProt P60842).
T1 construct: we performed immunoprecipitation from the pre-cleaned lysate of U251 cells; endogenous in cells; host or cells: U251 glioma cell lysate
Kind of data set: Immunoprecipitation with anti-BSH antibody from U251 cell lysate, Western blotting. The class given is binding. Particulars: lysate with or without 10 µg/mL RNase A, 1 h at room temperature (Figure 6B). As for the experimental part: (§1) Western blotting was performed as previously described. The cells were lysed in cell lysis buffer (20 mM Tris-HCl (pH =7.5), 150 mM NaCl, 1 mM EDTA, 1 mM Na2EGTA (ethylene glycol-bis(β-aminoethyl ether)-N,N,N′,N′-tetraacetic acid), 0.5% Triton X-100) supplemented with cOmplete Protease Inhibitor Cocktail (Sigma-Aldrich Co. LLC, St. Louis, MO, USA), and PhosSTOP phosphatase inhibitor cocktail (Sigma-Aldrich Co. LLC, St. Louis, MO, USA). After sonication and centrifugation (15,000 rpm, 4 °C, 10 min), the protein concentration of the supernatants was measured using a bicinchoninic acid (BCA) protein assay (Thermo Fisher Scientific, Inc., Waltham, MA, USA). The supernatants were added to 1/3 volume of 4x SDS sample buffer (240 mM Tris-HCl (pH=6.8), 8% sodium dodecyl sulfate (SDS), 40% glycerol, 0.1% bromophenol blue, 20% 2-mercaptoethanol) and boiled at 95 °C for 5 min. Then, the samples were applied to SDS-polyacrylamide gel electrophoresis (PAGE) and transferred to polyvinylidene fluoride (PVDF) membrane (Immobilon-P, 0.45 µm) (MilliporeSigma, Burlington, MA, USA). […] The signals were developed with Clarity Western enhanced chemiluminescence (ECL) Substrate (Bio-Rad Laboratories, Inc., Hercules, CA, USA) and detected with a ChemiDoc imaging system (Bio-Rad Laboratories, Inc., Hercules, CA, USA). […]
(In general: In western blotting, separated proteins are transferred to a membrane and probed.)

For data set [2], the target named is T2, poly(A)-binding protein 1 (PABP1) (Homo sapiens, UniProt P11940).
T2 construct: we performed immunoprecipitation from the pre-cleaned lysate of U251 cells; endogenous in cells; host or cells: U251 (U251MG) glioma cells
The data set is described as above. The protocol: (§2) Western blotting was performed as previously described. The cells were lysed in cell lysis buffer (20 mM Tris-HCl (pH =7.5), 150 mM NaCl, 1 mM EDTA, 1 mM Na2EGTA (ethylene glycol-bis(β-aminoethyl ether)-N,N,N′,N′-tetraacetic acid), 0.5% Triton X-100) supplemented with cOmplete Protease Inhibitor Cocktail (Sigma-Aldrich Co. LLC, St. Louis, MO, USA), and PhosSTOP phosphatase inhibitor cocktail (Sigma-Aldrich Co. LLC, St. Louis, MO, USA). After sonication and centrifugation (15,000 rpm, 4 °C, 10 min), the protein concentration of the supernatants was measured using a bicinchoninic acid (BCA) protein assay (Thermo Fisher Scientific, Inc., Waltham, MA, USA). The supernatants were added to 1/3 volume of 4x SDS sample buffer (240 mM Tris-HCl (pH=6.8), 8% sodium dodecyl sulfate (SDS), 40% glycerol, 0.1% bromophenol blue, 20% 2-mercaptoethanol) and boiled at 95 °C for 5 min. Then, the samples were applied to SDS-polyacrylamide gel electrophoresis (PAGE) and transferred to polyvinylidene fluoride (PVDF) membrane (Immobilon-P, 0.45 µm) (MilliporeSigma, Burlington, MA, USA). The membranes were blocked with 0.5% skim milk (nacalai tesque, Kyoto, Japan) in tris-buffered saline with tween20 (TBST, 137 mM NaCl, 2.68 mM KCl, 25 mM Tris (pH=7.4), 0.1% Tween20) and incubated with primary antibodies for 16 h at 4 °C and secondary antibodies for 1 h at room temperature. The signals were developed with Clarity Western enhanced chemiluminescence (ECL) Substrate (Bio-Rad Laboratories, Inc., Hercules, CA, USA) and detected with a ChemiDoc imaging system (Bio-Rad Laboratories, Inc., Hercules, CA, USA).
(§3) Immunoprecipitation was performed as previously described with modification. Briefly, the cells were lysed in cell lysis buffer supplemented with cOmplete Protease Inhibitor Cocktail and PhosSTOP phosphatase inhibitor cocktail. The lysate was passed through a 23G needle syringe 10 times and centrifuged at 15,000 rpm, at 4 °C, for 10 min. […]

In data set [3] the test system is NMuMG-GFP, NMuMG-HRas/shp53 and NMuMG-HRas/shp53/YAP1 cells. Description: Immunofluorescent analysis of uptake in transformed NMuMG cells. It is filed as cell-based, murine. To be noted: BSH 2 mM, NMuMG-HRas/shp53, NMuMG-HRas/shp53/YAP1 (Figure 4C). An excerpt: For transformation of the NMuMG cells, we prepared virus particles of pTomo-HRas/shRNA-p53 (Vector plasmid was a kind gift from Dr. Dinorah Morvinski, Tel Aviv University), pTomo (Addgene, #26291), FUW-tetO-wtYAP (Addgene, #84009), and FUdeltaGW-rtTA (Addgene, #19780), and infected cells in the same manner as written above. After the infection of pTomo viruses (pTomo-HRas/shRNA-p53 was used for malignant transformation, with pTomo for a negative control), the cells were further treated with adenovirus harboring Cre recombinase (cat#ADV-005) (Cell Biolabs Inc., San Diego, CA, USA), to activate the HRas expression cassette. The transformation was confirmed by the acquisition of the spheroid-forming capacity and morphological change (epithelial to spindle form).
(§4) The immunostaining of cells was performed as previously described with brief modifications. The cells were fixed with 4% paraformaldehyde (PFA) for 15 min, permeated with 0.05% Triton X-100 for 10 min, and blocked with 5% goat serum. Then, the samples were incubated with primary antibodies for 16 h at 4 °C and secondary antibodies for 1 h at room temperature. Primary antibodies against CD44 were purchased from Abcam (Cambridge, UK) (ab157107). Antibodies against the BSH molecule (clone#: 36-2H or 38-5C) were developed by ITM Co., Ltd. (Nagano, Japan). […]

For data set [4], the target named is T3, eRF3 (Homo sapiens, UniProt P15170).
T3 construct: we performed immunoprecipitation from the pre-cleaned lysate of U251 cells; endogenous in cells; host or cells: U251 glioma cell lysate
Description: Immunoprecipitation with anti-BSH antibody from U251 cell lysate, Western blotting. It is filed as binding. Particulars: lysate with or without 10 µg/mL RNase A, 1 h at room temperature (Figure 6B). As for the experimental part:
as §2, §3

The target of data set [5] is T4, eIF4G (Homo sapiens, UniProt Q04637).
T4 construct: we performed immunoprecipitation from the pre-cleaned lysate of U251 cells; endogenous in cells; host or cells: U251 (U251MG) glioma cells
Described as above. The class given is binding. The protocol: as §2, §3

For data set [6], the system named is U251MG cells. Description: Immunofluorescent analysis of cellular uptake with anti-BSH antibody. To be noted: U251 glioma cells, 20 µM, immunofluorescent analysis (Figure 1B). It is filed as cell-based, human. The protocol:
Human glioma cell lines U87MG and U251MG, human breast cancer cell lines MCF7 and MDA-MB-231, human pancreatic cancer cell lines CFPAC1 and PANC1, and murine mammary gland cell line NMuMG, were cultured in Dulbecco’s modified Eagle’s medium (DMEM) (FUJIFILM Wako Pure Chemical Corporation, Osaka, Japan) with 10% fetal bovine serum (FBS) (Corning Inc., Corning, NY, USA) and penicillin/streptomycin/L-glutamine (Fujifilm-Wako, Japan) as previously described. U87MG, MDA-MB-231, CFPAC-1, PANC-1, and NMuMG were obtained from the American Type Culture Collection (ATCC, Manassas, VA, USA) (catalogue number: HTB-14, HTB-26, CRL-1918, CRL-1469, and CRL-1636, respectively). U251MG and MCF7 were obtained from the Japanese Collection of Research Bioresources Cell Bank (JCRB, Ibaraki, Japan) (catalogue number: IFO50288 and JCRB0134, respectively).
as §4

In data set [7] the test system is CD44 protein. Kind of data set: Immunoprecipitation with anti-BSH antibody and Western blotting for CD44. The class given is binding, human. Particulars: MDA-MB-231 cell lysate 2000 µg/mL, compound 20 µM, 1 h at 4 °C, anti-BSH antibody 10 µg/mL, Western blotting (Figure 3A). The protocol:
as §1

Where [8] appears, read: immunoprecipitation with 20 µM of BSH, BSH-3R, BSH-11R (Figure 7A).
[9] abbreviates: lysate with or without 10 µg/mL RNase A, 1 h at room temperature (Figure 6B).

T2 sequence (P11940 whole entry): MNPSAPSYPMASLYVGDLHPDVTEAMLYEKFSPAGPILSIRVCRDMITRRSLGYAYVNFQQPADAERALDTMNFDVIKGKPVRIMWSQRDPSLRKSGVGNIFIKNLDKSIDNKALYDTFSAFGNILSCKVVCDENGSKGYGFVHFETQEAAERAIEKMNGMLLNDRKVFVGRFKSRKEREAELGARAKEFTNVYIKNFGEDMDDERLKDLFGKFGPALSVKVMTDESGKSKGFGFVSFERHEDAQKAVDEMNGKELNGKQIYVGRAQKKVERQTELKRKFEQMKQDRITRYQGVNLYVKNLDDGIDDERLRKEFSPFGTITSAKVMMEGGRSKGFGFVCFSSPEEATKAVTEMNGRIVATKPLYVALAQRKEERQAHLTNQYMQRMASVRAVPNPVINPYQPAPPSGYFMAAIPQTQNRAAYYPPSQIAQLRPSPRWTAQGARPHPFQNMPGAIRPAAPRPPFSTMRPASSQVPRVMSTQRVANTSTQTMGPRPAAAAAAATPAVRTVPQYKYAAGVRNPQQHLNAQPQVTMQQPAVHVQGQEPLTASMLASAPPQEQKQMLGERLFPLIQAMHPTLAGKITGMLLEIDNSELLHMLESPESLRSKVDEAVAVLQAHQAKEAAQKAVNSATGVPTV
T4 sequence (Q04637 whole entry): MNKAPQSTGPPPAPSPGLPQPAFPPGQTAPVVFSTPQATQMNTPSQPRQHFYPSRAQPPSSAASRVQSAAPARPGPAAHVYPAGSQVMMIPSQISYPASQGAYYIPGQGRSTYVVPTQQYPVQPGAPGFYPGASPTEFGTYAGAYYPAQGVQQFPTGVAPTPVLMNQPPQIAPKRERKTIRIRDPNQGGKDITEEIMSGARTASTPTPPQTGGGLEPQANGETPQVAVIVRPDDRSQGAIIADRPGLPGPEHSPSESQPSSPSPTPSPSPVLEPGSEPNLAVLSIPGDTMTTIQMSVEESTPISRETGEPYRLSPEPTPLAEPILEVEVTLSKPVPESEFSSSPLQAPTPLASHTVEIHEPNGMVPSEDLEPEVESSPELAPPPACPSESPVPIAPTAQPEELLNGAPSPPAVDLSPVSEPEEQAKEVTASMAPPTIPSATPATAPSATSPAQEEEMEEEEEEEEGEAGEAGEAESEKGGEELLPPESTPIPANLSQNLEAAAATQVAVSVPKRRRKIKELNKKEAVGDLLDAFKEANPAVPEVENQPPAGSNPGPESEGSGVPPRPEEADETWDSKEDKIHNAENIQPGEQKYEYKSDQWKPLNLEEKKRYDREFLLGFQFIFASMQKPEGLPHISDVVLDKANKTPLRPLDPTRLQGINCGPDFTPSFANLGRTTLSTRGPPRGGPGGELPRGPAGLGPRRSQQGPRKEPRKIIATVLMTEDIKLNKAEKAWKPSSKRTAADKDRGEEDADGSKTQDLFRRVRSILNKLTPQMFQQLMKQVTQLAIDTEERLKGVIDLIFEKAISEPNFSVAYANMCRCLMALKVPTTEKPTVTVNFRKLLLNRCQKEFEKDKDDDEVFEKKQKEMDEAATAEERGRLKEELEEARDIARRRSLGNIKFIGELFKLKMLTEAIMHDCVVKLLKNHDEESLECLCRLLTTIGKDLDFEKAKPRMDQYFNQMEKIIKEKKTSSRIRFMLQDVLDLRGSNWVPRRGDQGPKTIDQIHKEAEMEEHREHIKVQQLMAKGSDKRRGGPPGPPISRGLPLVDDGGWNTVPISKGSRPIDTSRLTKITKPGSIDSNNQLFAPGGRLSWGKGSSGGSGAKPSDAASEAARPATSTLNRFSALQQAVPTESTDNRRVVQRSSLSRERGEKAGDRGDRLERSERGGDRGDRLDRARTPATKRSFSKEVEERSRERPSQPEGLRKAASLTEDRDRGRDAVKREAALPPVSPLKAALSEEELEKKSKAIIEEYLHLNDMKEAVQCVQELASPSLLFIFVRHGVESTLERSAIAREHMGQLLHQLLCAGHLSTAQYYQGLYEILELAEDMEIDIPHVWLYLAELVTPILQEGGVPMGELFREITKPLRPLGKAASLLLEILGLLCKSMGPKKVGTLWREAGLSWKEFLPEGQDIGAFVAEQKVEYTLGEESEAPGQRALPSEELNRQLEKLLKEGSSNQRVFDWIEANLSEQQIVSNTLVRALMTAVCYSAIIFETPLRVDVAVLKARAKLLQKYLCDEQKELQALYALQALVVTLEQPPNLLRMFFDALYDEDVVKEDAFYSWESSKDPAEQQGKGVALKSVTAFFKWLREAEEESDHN
T3 sequence (P15170 whole entry): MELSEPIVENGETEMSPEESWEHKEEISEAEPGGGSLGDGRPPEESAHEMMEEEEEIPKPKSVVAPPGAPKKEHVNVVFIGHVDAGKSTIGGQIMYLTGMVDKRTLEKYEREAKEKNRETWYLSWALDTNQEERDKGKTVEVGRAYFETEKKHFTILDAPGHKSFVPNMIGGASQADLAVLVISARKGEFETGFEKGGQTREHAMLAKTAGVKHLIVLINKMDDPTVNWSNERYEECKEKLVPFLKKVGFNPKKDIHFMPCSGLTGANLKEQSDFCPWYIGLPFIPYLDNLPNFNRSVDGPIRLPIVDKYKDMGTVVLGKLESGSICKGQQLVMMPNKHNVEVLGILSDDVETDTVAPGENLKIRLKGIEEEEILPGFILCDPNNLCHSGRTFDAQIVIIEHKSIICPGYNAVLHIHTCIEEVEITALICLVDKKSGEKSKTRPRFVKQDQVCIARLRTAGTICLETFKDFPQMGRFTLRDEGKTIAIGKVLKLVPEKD
T1 sequence (P60842 whole entry): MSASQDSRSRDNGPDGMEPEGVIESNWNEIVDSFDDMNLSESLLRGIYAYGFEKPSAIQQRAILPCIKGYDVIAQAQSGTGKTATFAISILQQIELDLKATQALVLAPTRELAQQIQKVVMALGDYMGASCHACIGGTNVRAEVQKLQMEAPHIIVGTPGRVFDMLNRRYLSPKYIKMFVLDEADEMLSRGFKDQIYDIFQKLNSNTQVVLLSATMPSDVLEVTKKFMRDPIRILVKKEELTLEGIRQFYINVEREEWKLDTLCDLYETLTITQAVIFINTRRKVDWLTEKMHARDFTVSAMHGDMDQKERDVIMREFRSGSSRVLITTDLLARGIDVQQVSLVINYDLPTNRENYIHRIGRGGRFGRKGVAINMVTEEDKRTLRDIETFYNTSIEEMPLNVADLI

In the case of mercaptoundecahydrododecaborate [BSH], the “RNA dependence of binding to eIF4A” value in data set [1] is “did not bind to BSH in the presence or absence of RNA”. For the same substance, in data set [2] (setting [8]), the “PABP1 binding, dependence on arginine length” value is “bound to BSH in an RNA-dependent manner”. The “RNA dependence of binding to PABP1” value in data set [2] (setting [9]) is on record as “bound to PABP1 in the presence of RNA”. Moreover, in data set [2] (pre-cleaned U251 lysate, 20 µM (Figure 6A)), the “binding to PABP1 (immunoprecipitation)” value is given as “had a binding capacity with poly(A)-binding protein 1 (PABP1)”. Also, the “BSH immunofluorescent signal in cells” value in data set [3] was “did not show any signals in all types of cells”. The “binding to eRF3” value in data set [4] is on record as “did not bind to BSH”. Moreover, in data set [5] (setting [8]), the “eIF4G binding, dependence on arginine length” value is recorded as “did not observe a significant difference”. Also, the “RNA dependence of binding to eIF4G” value in data set [5] (setting [9]) is “little eIF4G was pulled-down with BSH in the presence of RNA”. In addition, in data set [6], the “passage through the plasma membrane” value was “could not”. Further, the “co-precipitation of CD44 protein with anti-BSH antibody” value in data set [7] was “failed to precipitate CD44”.
